Experimental data: patent publication US10912781B2, “Pharmaceutical composition comprising licarbazepine acetate” (BIAL-Portela & C.A., S.A., priority 2007, dated 2021)

Assay: Bulk density / apparent volume (Ph. Eur. edn. 6, test 2.9.15 or USP 31 <616>)
Format: physicochemical
Conditions: API prior to granulation / preparation prior to forming the final formulation
Procedure: Suitable methods for determining the bulk density of the preparation will be well known to the skilled chemist, for example, the European Pharmacopeia edition 6, Test 2.9.15 “apparent volume”, pages 285-286, EDQM, 2007, or USP 31, vol. 1 test <616> page 231-232, The United States Pharmacopeia Convention, 2008. The apparent density of a compressed formulation is measured in terms of mass and volume of the formulation and is well within the capabilities of the skilled person.
A suitable method is described below: • Apparatus • settling apparatus capable of producing in 1 minute 250±15 taps from a height of 3±0.2 mm. The support for the graduated cylinder with its holder, has a mass of 450±5 g • a 250 ml graduated cylinder (2 ml intervals) with a mass of 220±40 g • Method • Into a dry cylinder, introduce without compacting, 100.0 g […] of the test substance. Secure the cylinder in its holder. Read the unsettled apparent volume (V0) to the nearest milliliter. Carry out 10, 500 and 1250 taps and read the corresponding volumes V10, V500, V1250, to the nearest milliliter. If the difference between V500 and V1250 is greater than 2 ml, carry out another 1250 taps. […]
Bulk/apparent density may then be determined in g/ml using the following formula: m/V0 where m is the mass in grams and V0 the unsettled apparent volume

Bulk density: less than 0.3 g/mL
Bulk density (listed as API): about 0.28 g/mL
Substance: licarbazepine acetate
